Results on twelve molecules are retold here after ChEMBL document CHEMBL1201862, “PubChem BioAssay data set” (2004).

Some test systems named below: DU-145; HCT-15; HL-60; HOP-92; Hs-578T; LOX IMVI; MOLT-4; OVCAR-4; OVCAR-5; PC-3; RPMI-8226; SK-MEL-5; SK-OV-3; SNB-19; SNB-75; SR; TK-10.
Holding throughout (assay): growth of human tumour cells (NCI), 48 h

The structures appear in SMILES notation.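 Grown in 96-well plates, cells were treated for 48 hours with each compound at five concentrations. Insufficient inhibition: endpoint recorded as highest concentration tested. GI50: concentration for 50% inhibition of growth.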 Calls of active or inactive are those of the source. Cut-off read from the data, not from the text of the source: active = GI50 up to about 1.1 µM and inactive = higher.

As for `CN1CCCN2CCN(C)CCN(CC1)CC2`, the GI50 was > 100 µM (inactive) in the assay on DU-145; greater than 100 µM in the assay on HCT-15; > 100 µM (inactive) in the assay on HL-60; > 100 µM (inactive) with HOP-92; > 100 µM (inactive) with Hs-578T; > 100 µM (inactive) in the assay with LOX IMVI. Further, the GI50 in the assay on MOLT-4, in the assay with OVCAR-4, in the assay with OVCAR-5, with PC-3, in the assay on RPMI-8226 and with SK-MEL-5 was > 100 µM (inactive) throughout. Further, the GI50 with SK-OV-3, with SNB-19, in the assay on SNB-75, with SR and in the assay on TK-10 was > 100 µM (inactive) each time.

`CC(C)(C)c1ccc2c(c1)CNCCNCc1cc(C(C)(C)C)ccc1OCC1(CO2)COc2ccc(C(C)(C)C)cc2CNCCNCc2cc(C(C)(C)C)ccc2OC1`: the GI50 in the assay on DU-145 is 1.73 µM (inactive); with HCT-15, 0.931 µM; in the assay on HL-60, 0.179 µM (active); in the assay on HOP-92, 1.26 µM (inactive); in the assay on Hs-578T, 1.06 µM (active); with LOX IMVI, 0.243 µM (active). The GI50 with MOLT-4 is 0.225 µM (active); with OVCAR-4, 1.53 µM (inactive); in the assay on OVCAR-5, 1.72 µM (inactive); in the assay on PC-3, 1.58 µM (inactive); in the assay with RPMI-8226, 0.372 µM (active); in the assay with SK-MEL-5, 1.23 µM (inactive). In addition, the GI50 in the assay on SK-OV-3 is 1.84 µM (inactive); with SNB-19, 0.935 µM (active); in the assay with SNB-75, 1.51 µM (inactive); in the assay on SR, 0.129 µM (active); in the assay with TK-10 it was 1.85 µM (inactive).

As for `Cc1cn(C2CC(O)C(COP(=O)(O)OC3CC(n4c[n+]([BH2-]C#N)c5c(=O)[nH]c(N)nc54)OC3CO)O2)c(=O)[nH]c1=O` (stereo unspecified), the GI50 in the assay on DU-145 is > 100 µM (inactive); in the assay on HCT-15, greater than 100 µM; in the assay with HL-60, > 100 µM (inactive); in the assay with HOP-92, > 100 µM (inactive); in the assay on Hs-578T, > 100 µM (inactive); in the assay on LOX IMVI, > 100 µM (inactive). For the same molecule, the GI50 in the assay on MOLT-4, with OVCAR-4, with OVCAR-5, in the assay with PC-3, with RPMI-8226 and in the assay with SK-MEL-5 was > 100 µM (inactive) throughout. The GI50 in the assay with SK-OV-3, in the assay on SNB-19, in the assay with SNB-75, in the assay with SR and with TK-10 was > 100 µM (inactive) each time.

For the molecule `O=C1CCCC/C1=C\c1ccc(Br)cc1`, the GI50 in the assay on DU-145 is 40 µM (inactive); with HL-60, 2.4 µM (inactive); in the assay on HOP-92 it was 17.1 µM (inactive); with Hs-578T, 24.5 µM (inactive); with LOX IMVI it was 39.6 µM (inactive); in the assay with MOLT-4, 2.14 µM (inactive). The GI50 in the assay on OVCAR-4 is 22 µM (inactive); in the assay on OVCAR-5 it was > 10 µM (inactive); with PC-3, 97.7 µM (inactive); in the assay on RPMI-8226, 15.7 µM (inactive); with SK-MEL-5, 22.7 µM (inactive); with SK-OV-3 it was 24.8 µM (inactive). Moreover, the GI50 in the assay on SNB-19 was 3.69 µM (inactive); in the assay with SNB-75, 16 µM (inactive); with SR, 4.2 µM (inactive); in the assay on TK-10 it was 16.7 µM (inactive).

For `O=C(O)c1cccc(/N=N/c2c(S(=O)(=O)O)ccc3c2C(=O)c2ccccc2C3=O)c1O`, the GI50 is > 100 µM (inactive) in the assay with DU-145; greater than 100 µM with HCT-15; > 100 µM (inactive) in the assay on HL-60; > 100 µM (inactive) in the assay with HOP-92; > 100 µM (inactive) in the assay on Hs-578T; > 100 µM (inactive) in the assay on LOX IMVI. The GI50 in the assay on MOLT-4, in the assay on OVCAR-4, in the assay with OVCAR-5, in the assay with PC-3, in the assay on RPMI-8226 and with SK-MEL-5 was > 100 µM (inactive) in each case. Moreover, the GI50 in the assay with SK-OV-3, in the assay with SNB-19, in the assay with SNB-75, in the assay with SR and in the assay with TK-10 was > 100 µM (inactive) in each case.

Take `Cc1nn(C(=O)c2ccc(Cl)cc2)c2c1C(c1cccc([N+](=O)[O-])c1)SC(=N)N2` (stereo unspecified): the GI50 was > 10 µM (inactive) in the assay on DU-145; 2.56 µM in the assay on HCT-15; > 10 µM (inactive) in the assay on HL-60; > 10 µM (inactive) in the assay with HOP-92; > 10 µM (inactive) with Hs-578T; > 10 µM (inactive) with LOX IMVI. The GI50 in the assay on MOLT-4, in the assay with OVCAR-4, with OVCAR-5, in the assay with PC-3, in the assay on RPMI-8226 and in the assay with SK-MEL-5 was > 10 µM (inactive) each time. Also, the GI50 in the assay with SK-OV-3, with SNB-19, in the assay with SNB-75, in the assay with SR and in the assay with TK-10 was > 10 µM (inactive) each time.

Take `O=C1C=C(OCCCCl)C(=O)c2c(O)ccc(O)c21`: the GI50 with DU-145 is 0.303 µM (active); in the assay with HCT-15, 0.422 µM; in the assay with HL-60, 0.792 µM (active); in the assay with HOP-92, 1.42 µM (inactive); with Hs-578T, 2.42 µM (inactive); with LOX IMVI, 0.256 µM (active). In addition, the GI50 in the assay with MOLT-4 is 2.11 µM (inactive); in the assay on OVCAR-4 it was 1.25 µM (inactive); with OVCAR-5, 1.43 µM (inactive); in the assay with PC-3, 1.93 µM (inactive); in the assay with RPMI-8226 it was 2.06 µM (inactive); with SK-MEL-5, 0.163 µM (active). For the same molecule, the GI50 in the assay on SK-OV-3 was 2.24 µM (inactive); with SNB-19 it was 1.8 µM (inactive); with SNB-75, 1.4 µM (inactive); in the assay with SR, 0.871 µM (active); with TK-10, 1.81 µM (inactive).

Take `Cc1ccc(S(=O)(=O)N(CC(O)COc2ccccc2)c2c(F)c(F)c(F)c(F)c2F)cc1` (stereo unspecified): the GI50 was 22.3 µM (inactive) in the assay on DU-145; 16.5 µM with HCT-15; 6.32 µM (inactive) in the assay on HL-60; 8.49 µM (inactive) in the assay on HOP-92; 18.5 µM (inactive) in the assay with Hs-578T; 13.9 µM (inactive) in the assay with LOX IMVI. Besides, the GI50 in the assay with MOLT-4 is 21.6 µM (inactive); with OVCAR-4, 13.3 µM (inactive); in the assay with OVCAR-5, 18.3 µM (inactive); in the assay with PC-3, 13.6 µM (inactive); with RPMI-8226 it was 1.04 µM (active); in the assay on SK-MEL-5, 12.4 µM (inactive). In addition, the GI50 in the assay with SK-OV-3 is 19.9 µM (inactive); with SNB-19 it was 18.5 µM (inactive); in the assay with SNB-75, 16.3 µM (inactive); in the assay with SR, 20.7 µM (inactive); in the assay on TK-10, 24.7 µM (inactive).

Turning to `CNC(=S)Nc1ccc(OC)c2ccccc12`, the GI50 was > 10 µM (inactive) with DU-145; greater than 10 µM in the assay with HCT-15; > 10 µM (inactive) with HL-60; > 10 µM (inactive) in the assay on HOP-92; > 10 µM (inactive) in the assay with Hs-578T; > 10 µM (inactive) with LOX IMVI. Also, the GI50 in the assay on MOLT-4, in the assay with OVCAR-4, in the assay on OVCAR-5, in the assay on PC-3, in the assay on RPMI-8226 and in the assay with SK-MEL-5 was > 10 µM (inactive) each time. Further, the GI50 in the assay on SK-OV-3 was > 10 µM (inactive); in the assay with SNB-19 it was > 10 µM (inactive); in the assay with SNB-75, 4.43 µM (inactive); in the assay with SR, > 10 µM (inactive); with TK-10, > 10 µM (inactive).

For `CCN1CCN=c2c3cc(OC)ccc3n3cnc4ccc1c2c43`, the GI50 in the assay with DU-145 was 0.483 µM (active); with HCT-15, 0.177 µM; in the assay on HL-60, 0.206 µM (active); with HOP-92 it was 0.776 µM (active); with Hs-578T it was 0.313 µM (active); in the assay on LOX IMVI, 0.154 µM (active). The GI50 with MOLT-4 is 0.0879 µM (active); with OVCAR-4, 0.371 µM (active); in the assay with OVCAR-5 it was 0.316 µM (active); with PC-3, 0.207 µM (active); with RPMI-8226, 0.171 µM (active); with SK-MEL-5, 0.27 µM (active). For the same molecule, the GI50 is 0.348 µM (active) in the assay with SK-OV-3; 0.301 µM (active) with SNB-19; 0.456 µM (active) in the assay on SNB-75; 0.0283 µM (active) in the assay on SR; 0.411 µM (active) in the assay on TK-10.

Consider `C[C@@H]1C[C@](O)([C@@H](C)Cl)C(=O)O[C@@H]2CCN3CC=C(COC(=O)[C@]1(C)O)[C@H]23`, for which the GI50 was > 100 µM (inactive) in the assay with DU-145; greater than 100 µM in the assay on HCT-15; > 100 µM (inactive) with HL-60; > 100 µM (inactive) in the assay with HOP-92; > 100 µM (inactive) with Hs-578T; > 100 µM (inactive) in the assay with LOX IMVI. Moreover, the GI50 in the assay on OVCAR-4, in the assay with OVCAR-5, with PC-3, in the assay on RPMI-8226, in the assay with SK-MEL-5 and in the assay with SK-OV-3 was > 100 µM (inactive) in each case. The GI50 was > 10 µM (inactive) with SNB-19, > 100 µM (inactive) in the assay on SNB-75, > 100 µM (inactive) in the assay on SR and > 100 µM (inactive) in the assay with TK-10.

Take `COc1ccc(/C=C2/CCS(=O)(=O)c3ccc(C)cc3C2=O)cc1OC`: the GI50 in the assay with DU-145 is 3.73 µM (inactive); in the assay on HCT-15, 7.18 µM; in the assay with HL-60, 10.4 µM (inactive); in the assay on HOP-92, 2.36 µM (inactive); in the assay on Hs-578T, 11.5 µM (inactive); in the assay on LOX IMVI, 8.11 µM (inactive). Also, the GI50 in the assay with MOLT-4 was 12.1 µM (inactive); in the assay with OVCAR-4 it was 11.3 µM (inactive); in the assay on OVCAR-5 it was 27.5 µM (inactive); in the assay with PC-3, 15.8 µM (inactive); in the assay on RPMI-8226, 11.7 µM (inactive); with SK-OV-3 it was 21.6 µM (inactive). The GI50 in the assay with SNB-19 is 14.1 µM (inactive); in the assay on SNB-75 it was 12 µM (inactive); in the assay on SR, 20.6 µM (inactive); in the assay on TK-10, 13.6 µM (inactive).
